Read-outs that look alike come from different tables or passages of the source.
Experiments:
[1] = system: A375; assay: Photo- and cytotoxic activity determination (MTT), A375 cells; assay type: cell-based, human; details: normoxia; for A375 PI (phototherapeutic index), IC50 dark/IC50 irradiated: 520 nm, dark tested up to 100 μM; for IC50: 48 h drug-free medium
Text: (§1) Having shown that the Ir(III)-COUPY conjugates can sensitize both type I and II ROS through spectroscopic techniques and readily internalize into living cells, their photocytotoxicity was screened in various cancer cell lines. This screening included two representative melanoma cell lines (human A375 and […] human SK-MEL-28) and cancer cells with resistance to the clinical drug cisplatin. For the latter, both sensitive and cisplatin-resistant ovarian cancer cells (A2780 and A2780cis) as well as HeLa cells, which also show a degree of chemoresistance to the platinum anticancer drug in vitro,[54] were used. For the determination of dark and light cytotoxicity, dose–response curves were assayed from both conditions to provide the correspondent IC50 values, which correspond to the concentration needed for inhibition of cell growth by 50%. Phototherapeutic index (PI) was calculated as the ratio of dark to light IC50 value for each compound.
A375, HeLa, and SK-MEL-28 cells were cultured in Dulbecco’s modified Eagle medium (DMEM) supplemented with 10% FBS, L-glutamine, and 1% penicillin–streptomycin. A2780 and A2780cis cells were grown in RPMI-1640 cell medium supplemented with 10% fetal bovine serum (FBS) and 2 mM L-glutamine. Acquired resistance to cisplatin in the A2780cis cell line was maintained by adding cisplatin 1 μM to culture medium every second passage. Cells were cultured in a humidified incubator at 310 K with 5% CO2 atmosphere and subcultured two or three times a week with appropriate densities and were confirmed to be mycoplasma-free using a standard Hoechst DNA staining method.
(§2) A2780, A2780cis, HeLa, A375, and SK-MEL-28 cells were maintained at logarithmic growth-phase and cultured in 96-well plates at a density of 5000 cells/well in complete medium for 24 h at 310 K, 5% CO2 in a humidified incubator. For hypoxia experiments, a hypoxia condition was set up by Tissue Culture Service at University of Murcia using nitrogen (N2) to displace O2 down to a minimum of 2% in a Forma Steri-Cycle i160 incubator (Thermo Fisher Scientific). Serial dilutions of the compounds were added at the final concentrations in the range of 0–100 μM in a final volume of 100 μL per well. A light-based treatment schedule was performed as follows: 1 h incubation with the compounds in the dark, followed by 1 h incubation under irradiation conditions by placing the Photoreactor EXPO-LED from Luzchem (Canada) fitted with green lamps (final light intensity applied of 1.5 mW/cm^2 at λmax = 520 nm) inside the CO2 incubator. All the cell culture plates subjected to light irradiation included untreated controls to verify that cell viability was not affected by light. Then, treatment-containing media was removed, and fresh media was added for a 48 h cell recovery period; the temperature throughout the experiment remained at 310 K. Dark control samples were placed in the same dark conditions and then kept incubated for 1 h in the dark in the humidified CO2 incubator. Medium was then aspirated by suction, cells were loaded with 50 μL of MTT solution (1 mg/mL) for additional 4 h and then removed, and 50 μL of DMSO was added to solubilize the purple formazan crystals formed in active cells. The absorbance was measured at 570 nm using a microplate reader (FLUOstar Omega), and the IC50 values were calculated based on the inhibitory rate curves using the following equation [drawing 4] 4 where I represents the percentage inhibition of viability observed, Imax is the maximal inhibitory effect, IC50 is the concentration that inhibits 50% of maximal growth, C is the concentration of the treatment, and n is the slope of the semi-logarithmic dose–response sigmoidal curves. The non-linear fitting was performed using SigmaPlot 14.0 software. All experiments were performed in three independent studies with n = 3 replicates per concentration level. For a detailed phototoxicity procedure, ref ([43]) includes technical explanations.

[2] = system: A2780cis cells; assay: Cell death induction (Annexin V/PI staining, FSC/SSC flow cytometry); assay type: cell-based; details: 10 μM; for mode of cell death (Annexin V/Propidium Iodide): 1 h + 1 h 520 nm, 24 h recovery; for secondary cell population with low FSC/SSC ratios (non-viable morphology): 1 h, 520 nm 1 h
Protocol: Cell death induction was evaluated using the Annexin V-FITC/Propidium iodide (AV/PI) dual staining method. Briefly, A2780cis cells were seeded in 12-well plates at a density of 2 × 10^5 cells/well and incubated overnight at 310 K. Tested compounds (10 μM) were added, following the described treatment schedule (1 h incubation + 1 h irradiation with 520 nm light). Irradiated, non-treated cells served as the control group. After 24 h of the drug-free recovery period, cells were harvested by trypsinization, washed with PBS and centrifuged, and the pellets were resuspended in 200 μL of a binding buffer as instructed by the manufacturer (Cayman). The resuspended cell solution was left at room temperature in the dark for 15 min before analysis by flow cytometry (FACSCalibur BecktonDickinson; 10^4 events acquired per sample). Cells were visualized using λexc = 488 channels and registered at 525 nm and 620 nm for Annexin V and propidium iodide in FL1 and FL2 channels, respectively. Cell populations were classified as follows: AV^-/PI^- (viable cells); AV^-/PI^+ (necrotic cells); AV^+/PI^- and AV^+/PI^+ (apoptotic cells). Alternatively, A2780cis cells were subjected to flow cytometry after phototreatments and morphological changes were analyzed using FSC and SSC contour plots. Data were analyzed using FlowJo software. Three independent experiments were performed.

[3] = Singlet oxygen generation, time-resolved NIR phosphorescence at 1275 nm; assay type: physicochemical; details: for singlet oxygen quantum yields in DCM: excitation at 355 and 532 nm; for singlet oxygen quantum yield at 355 nm, ACN / singlet oxygen quantum yield at 355 nm, DCM / singlet oxygen quantum yield at 355 nm, PBS: excitation 355 nm
Text: Singlet oxygen generation was studied by time-resolved near-infrared phosphorescence by means of a customized setup. Briefly, a pulsed Nd:YAG laser (FTSS355-Q, Crystal Laser, Berlin, Germany) working at a 1 or 10 kHz repetition rate at 355 nm (0.5 μJ per pulse) or 532 nm (1.2 μJ per pulse) was used to excite the sample. A 1064 nm rugate notch filter (Edmund Optics) and an uncoated SKG-5 filter (CVI Laser Corporation) were placed in the laser path to remove any NIR emission. The light emitted by the sample was filtered with a 1000 nm long-pass filter (Edmund Optics) and later by a narrow bandpass filter at 1275 nm (BK-1270-70-B, bk Interferenzoptik). A thermoelectric-cooled NIR-sensitive photomultiplier tube assembly (H9170-45, Hamamatsu Photonics, Hamamatsu, Japan) was used as a detector. […] The time dependence of the ^1O2 phosphorescence with the signal intensity S(t) is described by eq 2, in which τT and τΔ are the lifetimes of the photosensitizer triplet state and of ^1O2 respectively, and S0 is a preexponential parameter proportional to ΦΔ. [drawing 2] 2
The ΦΔ values of the different samples were obtained by comparing S0 values of optically matched samples and using an appropriate reference by means of eq 3. [drawing 3] 3

[4] = system: A375, SK-MEL-28, HeLa, A2780 and A2780cis cancer cells; assay: Photo- and cytotoxicity, statements across the studied cancer cell lines; assay type: cell-based; details: for IC50: absence of light, regardless of the cell line, read-out: dark IC50 in the studied cancer cell lines
Text: as §1
as §2, with “4 where I represents the percentage inhibition of viability observed, Imax is the maximal inhibitory effect, IC50 is the concentration that inhibits 50% of maximal growth, C is the concentration of the treatment, and n is the slope of the semi-logarithmic dose–response sigmoidal curves. The non-linear fitting was performed using SigmaPlot 14.0 software. All experiments were performed in three independent studies with n = 3 replicates per concentration level. For a detailed phototoxicity procedure, ref ([43]) includes technical explanations.” left out

[5] = 1 h incubation + 1 h green light 520 nm, 1.5 mW cm^–2, read-out: A375 light IC50
[6] = kept in the dark, 2 h treatment, read-out: A375 dark IC50
[7] = Homo sapiens, A-375, 1 h incubation + 1 h green light 520 nm, 1.5 mW cm^–2, read-out: A375 light IC50
[8] = Homo sapiens, A-375, kept in the dark, 2 h treatment, read-out: A375 dark IC50
[9] = excitation 532 nm, room temperature

Structure (SMILES) | A375 PI (phototherapeutic index), IC50 dark/IC50 irradiated [1] | IC50 [1, 5] [µM] | IC50 [1, 6] [µM] | mode of cell death (Annexin V/Propidium Iodide) [2] | secondary cell population with low FSC/SSC ratios (non-viable morphology) [2] | IC50 [1, 7] [µM] | IC50 [1, 8] [µM] | other results
CCCCn1c2[n+](c3cc(C(=O)NCCCNC(=O)C[n+]4ccc(/C(C#N)=C5/C=C(C)c6ccc(N(CC)CC)cc6O5)cc4)ccc31)[Ir-3]13([c]4ccccc4-c4[nH]c5ccccc5[n+]41)([c]1ccccc1-c1[nH]c4ccccc4[n+]13)[n+]1c-2ccc2ccccc21 [3a] | > 6 | 18 ± 3 | > 100 | photoinduced necrotic cell death | vastly induced these secondary cell populations | – | – | –
CCCCn1c2[n+](c3cc(C(=O)NCCCNC(=O)C[n+]4ccc(/C(C#N)=C5/C=C(C)c6ccccc6O5)cc4)ccc31)[Ir-3]13([c]4ccccc4-c4[nH]c5ccccc5[n+]41)([c]1ccccc1-c1[nH]c4ccccc4[n+]13)[n+]1c-2ccc2ccccc21 [3b] | > 1.3 | 78 ± 6 | > 100 | – | did not produce such changes | – | – | singlet oxygen quantum yields in DCM ([3]; DCM): ca. 0.20
CCN(CC)c1ccc2c(c1)O/C(=C(/C#N)c1cc[n+](C)cc1)C=C2C [1a] | > 89 | – | – | – | – | 1.1 ± 0.1 | > 100 | fold differences in bioactivity upon irradiation ([4]; melanoma cells, 520 nm): more than 86 fold
CC1=C/C(=C(\C#N)c2cc[n+](C)cc2)Oc2ccccc21 [1b] | > 10 | – | – | – | – | 10 ± 2 | > 100 | antiproliferative activity after light irradiation ([4]; 520 nm, investigated cancer cells): did not display antiproliferative activity after light irradiation; singlet oxygen quantum yield at 355 nm, ACN ([3]; room temperature): 0.01; singlet oxygen quantum yield at 532 nm, ACN [3, 9]: < 0.01; singlet oxygen quantum yield at 355 nm, DCM ([3]; DCM, room temperature): 0.01; singlet oxygen quantum yield at 355 nm, PBS ([3]; room temperature): 0; singlet oxygen quantum yield at 532 nm, PBS [3, 9]: < 0.01
CCCCn1c2[n+](c3cc(C(=O)OC)ccc31)[Ir-3]13([c]4ccccc4-c4[nH]c5ccccc5[n+]41)([c]1ccccc1-c1[nH]c4ccccc4[n+]13)[n+]1c-2ccc2ccccc21 [2a] | > 48 | 2.1 ± 0.3 | > 100 | – | – | – | – | –
CCCCn1c2[n+](c3cc(C(=O)NCCCCCC(=O)NCCCNC(=O)C[n+]4ccc(/C(C#N)=C5/C=C(C)c6ccc(N(CC)CC)cc6O5)cc4)ccc31)[Ir-3]13([c]4ccccc4-c4[nH]c5ccccc5[n+]41)([c]1ccccc1-c1[nH]c4ccccc4[n+]13)[n+]1c-2ccc2ccccc21 [3d] | > 2.2 | 46 ± 4 | > 100 | photoinduced necrotic cell death | vastly induced these secondary cell populations | – | – | –
CC1=C/C(=C(\C#N)c2cc[n+](C)cc2)Oc2c1cc1c3c2CCCN3CCC1 [1c] | 32 | – | – | – | – | 0.31 ± 0.02 | 9.9 ± 0.5 | IC50 [4]: 5 to 26 µM; singlet oxygen quantum yield at 355 nm, ACN ([3]; room temperature): 0; singlet oxygen quantum yield at 532 nm, ACN [3, 9]: 0.01; singlet oxygen quantum yield at 355 nm, DCM ([3]; DCM, room temperature): 0.03; singlet oxygen quantum yield at 532 nm, DCM ([3]; DCM, excitation 532 nm, room temperature): 0.03; singlet oxygen quantum yield at 355 nm, PBS ([3]; room temperature): 0; singlet oxygen quantum yield at 532 nm, PBS [3, 9]: < 0.01
CCCCn1c2[n+](c3cc(C(=O)NCCCNC(=O)C[n+]4ccc(/C(C#N)=C5/C=C(C)c6cc7c8c(c6O5)CCCN8CCC7)cc4)ccc31)[Ir-3]13([c]4ccccc4-c4[nH]c5ccccc5[n+]41)([c]1ccccc1-c1[nH]c4ccccc4[n+]13)[n+]1c-2ccc2ccccc21 [3c] | > 3 | 38 ± 5 | > 100 | photoinduced necrotic cell death | vastly induced these secondary cell populations | – | – | IC50 [4]: > 100 µM; singlet oxygen quantum yields in DCM ([3]; DCM): ca. 0.20
CCCCn1c2[n+](c3cc(C(=O)NC[C@H]4CC[C@H](C(=O)NCCCNC(=O)C[n+]5ccc(/C(C#N)=C6/C=C(C)c7ccc(N(CC)CC)cc7O6)cc5)CC4)ccc31)[Ir-3]13([c]4ccccc4-c4[nH]c5ccccc5[n+]41)([c]1ccccc1-c1[nH]c4ccccc4[n+]13)[n+]1c-2ccc2ccccc21 [3e] | > 5 | 19 ± 3 | > 100 | photoinduced necrotic cell death | vastly induced these secondary cell populations | – | – | –
